Patent publication US5932709A (University of Michigan, priority 1997, dated 1999)
In brackets after ≈: the same amount, converted by molar mass. Entries after “also recorded” stand apart in the source; their conditions may differ.

Columns and labels:
[1] = test system: MCF-7 human breast tumor cells; experiment: MTT growth inhibition, MCF-7; assay type: cell-based; settings: MCF7, 144 h, MCF-7, MTT, 6 days, read-out: Growth Inhibitory Activity IC50
Method: (§1) Camptothecin was used as a control to test the anti-cancer efficacy of the novel camptothecin analogs of the present invention.
(§2) Murine B16 melanoma cell line was grown in RPMI 1640 medium supplemented with 10% heat-inactivated fetal bovine serum, 2 mM L-glutamine, 50 units/mL penicillin, 50 μg/mL streptomycin, 25 μg/mL gentamicin, 0.75% sodium bicarbonate 10 mM HEPES buffer (pH 7.4), and 0.06 mg/mL AntiPPLO. Murine P388 leukemic cell line and human HT-29 colon adenocarcinoma line were maintained in RPMI 1640 medium supplemented with 10% heat-inactivated fetal bovine serum. […] MCF-7M human breast adenocarcinoma was maintained in IMEM supplemented with 5% non heat-inactivated fetal bovine serum and 1 nM insulin.
(§3) [See "Rapid Colorimetric Assay For Cellular Growth And Survival: Application To Proliferation And Cytotoxicity Assays," J. Immun. Meth. 65:55 (1983)]. The assay utilizes a tetrazolium salt to quantitatively measure mammalian cell survival and proliferation by colorimetric methods. In particular, MTT, a pale yellow compound with minimal absorbance, is incubated with cancerous cells in addition to (or in the absence of) a particular camptothecin analog. Living cells with active mitochondrial enzymes metabolize the MTT into a dark blue/purple formazan product with high absorbance. The exact procedure used to test the camptothecin analogs of the present invention is described below.
(§4) Exponentially growing cells (1-2×10^3 cells, unless specified otherwise) in 0.1 mL medium were seeded on day 0 in a 96-well microtiter plate. On day 1, 0.1 mL aliquots of medium containing graded concentrations of test analogs were added to the cell plates. After incubation at 37° C. in a humidified incubator for 3 days (P388, P388/CPT, B16) or 6 days (HT-29, MCF-7M), the plates were centrifuged briefly and 100 μL of the growth medium was removed. Cell cultures were incubated with 50 μL of 3-(4,5-dimethylthiazol-2-yl)-2,5-diphenyl-tetrazolium bromide [MTT, 1 mg/mL in Dulbecco's phosphate buffered saline (PBS)] for 4 hr at 37° C. The resulting purple formazan precipitate was solubilized with 200 μL of 0.04 N HCl in isopropyl alcohol. Absorbance was monitored in a BioRad Model 3550 Microplate Reader at a test wavelength of 570 nm and a reference wavelength of 630 nm. The absorbance is transferred to a PC 486 computer. The IC50 values were determined by a computer program (EZ-ED50) that fits all of the data to the following four-parameter logistic equation:
(§5) Y=(Amax -Amin)/(1+[X/IC^50 ])^n +Amin
(§6) where Amax is the absorbance of control cells, Amin is the absorbance of cells in the presence of highest agent concentration, IC^50 is the concentration of agent that inhibits the cell growth by 50% of control cells (based on the absorbance) and n is the slope of the curve.

[2] = test system: B16 murine melanoma cells; experiment: MTT growth inhibition, B16; assay type: cell-based; settings: Mus musculus, 72 h, 3 days, read-out: Growth Inhibitory Activity IC50
Method: as §1, §2, §3, §4, §5, §6

[3] = test system: P388 murine leukemia cells; experiment: MTT growth inhibition, P388; assay type: cell-based; settings: Mus musculus, 72 h, 3 days, read-out: Growth Inhibitory Activity IC50
Method: as §1, §2, §3, §4, §5, §6

[4] = test system: P388/CPT CPT-resistant murine leukemia cells; experiment: MTT growth inhibition, P388/CPT; assay type: cell-based; settings: Mus musculus, 72 h, 3 days, read-out: Growth Inhibitory Activity IC50
Method: as §1, §2, §3, §4, §5, §6

murine B16 melanoma = experiment: Murine B16 melanoma model in vivo; set-up: species or system mouse (B6D2F1); settings: for Survivors: 60-day
Method: 1) Murine B16 Melanoma Model
(§7) For the B16 melanoma model, the following procedure was used. B6D2F1 mice receive i.p. inocula of B16 murine melanoma brei prepared from B16 tumors growing s.c. in mice (day 0). […] If dosing information for agents is not available, the maximum tolerated dose (MTD) is determined in initial dose finding experiments in non-tumored mice.
(§8) The mean survival times of all groups are calculated, and results are expressed as mean survival of treated mice/mean survival of control mice (T/C)×100%. A T/C value of 150 means that the mice in the treated group lived 50% longer than those of the control group; this is sometimes referred to as the increase in life span or ILS value.
Mice that survive for 60 days are considered long-term survivors, or cures, in the B16 model. The universally accepted cut-off for activity in this model, which has been for years by the National Cancer Institute, is T/C=125. Conventional use of B16 over the years has set the following levels of activity: T/C<125, no activity, T/C=125-150, weak activity; T/C=150-200, modest activity; T/C=200-300, high activity; T/C>300, with long term survivors; excellent, curative activity.

murine P388 leukemia = experiment: Murine P388 leukemia model in vivo; set-up: species or system mouse (B6D2F1); settings: for Survivors: 30-day; for efficacy vs P388 leukemia: i.p. five day schedule
Method: as §7, §8
For the P388 leukemia model, the procedure followed is exactly the same as the aforementioned B16 model. The tumor inoculum is prepared by removing ascited fluid containing P388 cells from tumored B6D2F1 mice, centrifuging the cells, and then resuspending the leukemia cells in saline. Mice receive 1×10^6 P388 cells i.p. on day 0.

tumor cells = experiment: MTT growth inhibition across tumor cell lines (P388, P388/CPT, B16, HT-29, MCF-7M); assay type: cell-based; settings: for growth inhibitory activity: comparison in words
Method: as §3
as §4, with “equation: […]” for “equation:”

SMILES: CC[C@@]1(O)C(=O)OCc2c1cc1n(c2=O)Cc2c-1nc1ccccc1c2CO[C@@H]1C=C[C@H](OC(C)=O)[C@@H](COC(C)=O)O1 [HAR4, 7-[4,6-di-O-acetyl-2,3-dideoxy-α-D-erythro-hex-2-enopyranosyl]oxymethylcamptothecin]
- IC50 [1]: 0.0027 µg/mL (≈ 0.00457 µM)
- IC50 [2]: 0.026 µg/mL (≈ 0.044 µM)
- IC50 [3]: 0.03 µg/mL (≈ 0.0508 µM)
- IC50 [4]: 7.04 µg/mL (≈ 11.9 µM)
- cures (murine B16 melanoma; 10 mg/kg): one
- T/C (mean survival treated/control) (murine B16 melanoma; 10 mg/kg i.p. daily×5): 189%
- Tox Deaths (murine B16 melanoma; 10 mg/kg i.p. daily×5): 0/10
- ΔWeight (%) (murine B16 melanoma; 10 mg/kg i.p. daily×5): +6.6%
- Survivors (murine B16 melanoma; 10 mg/kg i.p. daily×5): 1/10
- cures (murine B16 melanoma; 20 mg/kg): one
- T/C (mean survival treated/control) (murine B16 melanoma; 20 mg/kg i.p. daily×5): 212%
- Tox Deaths (murine B16 melanoma; 20 mg/kg i.p. daily×5): 1/10
- ΔWeight (%) (murine B16 melanoma; 20 mg/kg i.p. daily×5): -15.6%
- Survivors (murine B16 melanoma; 20 mg/kg i.p. daily×5): 1/10
- toxic deaths (murine B16 melanoma; high dose group): one
- cures (murine P388 leukemia; 10 mg/kg): two
- T/C (mean survival treated/control) (murine P388 leukemia; 10 mg/kg i.p. daily×5): 201%
- Tox Deaths (murine P388 leukemia; 10 mg/kg i.p. daily×5): 0/10
- ΔWeight (%) (murine P388 leukemia; 10 mg/kg i.p. daily×5): -0.6%
- Survivors (murine P388 leukemia; 10 mg/kg i.p. daily×5): 2/10
- cures (murine P388 leukemia; 20 mg/kg): two
- T/C (mean survival treated/control) (murine P388 leukemia; 20 mg/kg i.p. daily×5): 206%
- Tox Deaths (murine P388 leukemia; 20 mg/kg i.p. daily×5): 0/10
- ΔWeight (%) (murine P388 leukemia; 20 mg/kg i.p. daily×5): -14.0%
- Survivors (murine P388 leukemia; 20 mg/kg i.p. daily×5): 2/10
- toxic deaths (murine P388 leukemia; at the high dose): no toxic deaths occurred
- weight loss (murine P388 leukemia; at the high dose (MTD)): 12%-16
- efficacy vs P388 leukemia (murine P388 leukemia; in words): high, curative efficacy; also recorded: excellent activity vs. P388
- growth inhibitory activity (tumor cells): quite similar to those of camptothecin
- potency in inhibiting growth of tumor cells (tumor cells; more potent than HAR7): 2-3 fold

SMILES: CC[C@@]1(O)C(=O)OCc2c1cc1n(c2=O)Cc2c-1nc1ccccc1c2CO[C@@H]1C=C[C@H](O[C@H]2O[C@H](COC(C)=O)[C@@H](OC(C)=O)[C@H](OC(C)=O)[C@H]2OC(C)=O)[C@@H](COC(C)=O)O1 [HAR5, 7-[6-O-acetyl-4-O-(2,3,4,6-tetra-O-acetyl-α-D-glucopyranosyl)-2,3-dideoxy-α-D-erythro-hex-2-enopyranosyl]oxymethylcamptothecin]
- IC50 [1]: 0.01 µg/mL (≈ 0.0114 µM)
- IC50 [2]: 0.43 µg/mL (≈ 0.489 µM)
- IC50 [3]: 0.362 µg/mL (≈ 0.412 µM)
- IC50 [4]: 21.2 µg/mL (≈ 24.1 µM)
- 60-day survivors (cures) (murine B16 melanoma; 100 mg/kg): three
- T/C (mean survival treated/control) (murine B16 melanoma; 100 mg/kg i.p. daily×5): 239%
- Tox Deaths (murine B16 melanoma; 100 mg/kg i.p. daily×5): 0/10
- ΔWeight (%) (murine B16 melanoma; 100 mg/kg i.p. daily×5): +9.0%
- Survivors (murine B16 melanoma; 100 mg/kg i.p. daily×5): 3/10
- 60-day survivors (cures) (murine B16 melanoma; 200 mg/kg): three
- T/C (mean survival treated/control) (murine B16 melanoma; 200 mg/kg i.p. daily×5): 232%
- Tox Deaths (murine B16 melanoma; 200 mg/kg i.p. daily×5): 0/10
- ΔWeight (%) (murine B16 melanoma; 200 mg/kg i.p. daily×5): +5.9%
- Survivors (murine B16 melanoma; 200 mg/kg i.p. daily×5): 3/10
- efficacy vs. B16 (murine B16 melanoma; among the four analogs, in words): highest efficacy vs. B16
- 30-day survivors (cures) (murine P388 leukemia; 100 mg/kg): one
- T/C (mean survival treated/control) (murine P388 leukemia; 100 mg/kg i.p. daily×5): 141%
- Tox Deaths (murine P388 leukemia; 100 mg/kg i.p. daily×5): 0/10
- ΔWeight (%) (murine P388 leukemia; 100 mg/kg i.p. daily×5): +0.7%
- Survivors (murine P388 leukemia; 100 mg/kg i.p. daily×5): 1/10
- T/C (mean survival treated/control) (murine P388 leukemia; 200 mg/kg i.p. daily×5): 161%
- Tox Deaths (murine P388 leukemia; 200 mg/kg i.p. daily×5): 0/10
- ΔWeight (%) (murine P388 leukemia; 200 mg/kg i.p. daily×5): -2.0%
- Survivors (murine P388 leukemia; 200 mg/kg i.p. daily×5): 0/10
- weight loss (murine P388 leukemia; at its solubility-limiting dose, in words): only insignificant weight loss
- efficacy vs P388 leukemia (murine P388 leukemia; in words): less efficacious compared to the other three compounds
- growth inhibitory activity (tumor cells): more cytotoxic than camptothecin hydroxyl maltal (HAR6)
